Test system: yeast genes (level of expressed mRNA)
Assay: DNA chip analysis of expressed mRNA of yeast genes after 2 h culture with a toxic chemical substance
Type: cell-based, Saccharomyces cerevisiae S288C
Protocol: Yeast (Saccharomyces cerevtisiae S288C (α SUC2mal mel gap2 CUP1)) were cultured at 25° C. on YPD medium (yeast extract 1%, polypepton 2%, glucose 2%). One of toxic chemical substances was added to the cell at logarithmic growth phase, and the cell was further cultured for two hours. Cell was cultured without any chemical substance in the same condition, and was used as control. Concentrations of the chemical substances were defined to inhibit the growth of the yeast but not lead to death.
After the completion of cultivation, the culture was centrifuged to collect the cells. To the cells, sodium acetate buffer (50 mM sodium acetate, 10 mM EDTA, 1% SDS) was added, and the mixture was shaken at 65° C. for five minutes, followed by returning to room temperature, and obtaining the supernatant, which procedure was repeated two times. To the supernatant, ½ amount of a solution of phenol/chloroform was added, and the mixture was centrifuged to give a supernatant, which was added with an equal amount of chloroform, and the mixture was centrifuged to give a supernatant. To the supernatant, an equal amount of isopropanol containing 0.3 M sodium acetate was added, and the mixture was allowed to stand at room temperature for 30 minutes, after which the mixture was centrifuged to give a sediment of the whole RNAs. Seventy % ethanol was added to the sediment, and the mixture was again centrifuged to give a sediment, which was then dried and dissolved in water. mRNA was isolated from the whole RNAs as followings. In view of the fact that a poly A chain is attached to the 3′ terminus of mRNA, a polynucleotide having a poly T structure which was immobilized on the surface of latex beads was used to trap the mRNA, and then the mRNA was washed and eluted with spine column (Oligotex-dT30<Super>mRNA Purification Kit, Takara). Reverse transcription of the mRNA was conducted with a reverse transcriptase (Super Script II Reverse Transcriptase; catalogue No. 18064-014, GibcoBRL) using fluorescence-labeled nucleotides to give cDNAs that were introduced with Cy3-dUTP or Cy5-dUTP during the reverse transcription.
The labeled cDNAs were dissolved in TE buffer (10 mM Tris-HCl/1 mM EDTA, pH8.0), and the solution was dropped on the DNA chip containing the whole genes of yeast (DNA Chip Research Inc. Japan) so that the cDNAs were hybridized on the DNA chip at 65° C. for over 12 hours. The fluoresces intensity of the DNA chip was read with a scanner, and the ratio relative to the fluorescence intensity resulting from the absence of chemical substance was estimated as the following, which is shown in Tables 1 to 9: [formula]
In the Tables, “Intensity” indicated in the rightmost column is a value of the level of expressed mRNA of each gene in control cells as divided by the average level of the expressions of the whole genes.

manganese ethylenebis(dithiocarbamate) [(8)]
5.8: The level of expressed mRNA in the presence of chemical substance/The level of expressed mRNA in the absence of chemical substance (yeast gene YDL238C)
1.6: The level of expressed mRNA in the presence of chemical substance/The level of expressed mRNA in the absence of chemical substance (yeast gene YBL078C) | The level of expressed mRNA in the presence of chemical substance/The level of expressed mRNA in the absence of chemical substance (yeast gene YDR055W)
1.2: The level of expressed mRNA in the presence of chemical substance/ (yeast gene YBL048W, ratio to control without chemical substance, 2 h culture) | The level of expressed mRNA in the presence of chemical substance/The level of expressed mRNA in the absence of chemical substance (yeast gene YCR004C) | The level of expressed mRNA in the presence of chemical substance/The level of expressed mRNA in the absence of chemical substance (yeast gene YDL008W) | The level of expressed mRNA in the presence of chemical substance/The level of expressed mRNA in the absence of chemical substance (yeast gene YDR358W) | The level of expressed mRNA in the presence of chemical substance/ (yeast gene YEL001C, ratio to control without chemical) | The level of expressed mRNA in the presence of chemical substance/ (yeast gene YER035W, ratio to control without chemical substance, 2 h culture) | The level of expressed mRNA in the presence of chemical substance/ (yeast gene YER106W, ratio to control without chemical) | The level of expressed mRNA in the presence of chemical substance/The level of expressed mRNA in the absence of chemical substance (yeast gene YER130C)
0.9: The level of expressed mRNA in the presence of chemical substance/The level of expressed mRNA in the absence of chemical substance (yeast gene YCR071C) | The level of expressed mRNA in the presence of chemical substance/ (yeast gene YDR411C, ratio to control without chemical substance, 2 h culture) | The level of expressed mRNA in the presence of chemical substance/ (yeast gene YER158C, ratio to control without chemical substance, 2 h culture)
1.9: The level of expressed mRNA in the presence of chemical substance/ (yeast gene YBL107C, ratio to control without chemical substance, 2 h culture)
1.4: The level of expressed mRNA in the presence of chemical substance/The level of expressed mRNA in the absence of chemical substance (yeast gene YDR259C) | The level of expressed mRNA in the presence of chemical substance/The level of expressed mRNA in the absence of chemical substance (yeast gene YDR315C) | The level of expressed mRNA in the presence of chemical substance/The level of expressed mRNA in the absence of chemical substance (yeast gene YEL066W) | The level of expressed mRNA in the presence of chemical substance/ (yeast gene YER079W, ratio to control without chemical substance, 2 h culture) | The level of expressed mRNA in the presence of chemical substance/ (yeast gene YER163C, ratio to control without chemical substance, 2 h culture)
1.7: The level of expressed mRNA in the presence of chemical substance/The level of expressed mRNA in the absence of chemical substance (yeast gene YBL041W) | The level of expressed mRNA in the presence of chemical substance/The level of expressed mRNA in the absence of chemical substance (yeast gene YCL020W) | The level of expressed mRNA in the presence of chemical substance/ (yeast gene YDR511W, ratio to control without chemical substance, 2 h culture)
1.0: The level of expressed mRNA in the presence of chemical substance/The level of expressed mRNA in the absence of chemical substance (yeast gene YBL005W-A) | The level of expressed mRNA in the presence of chemical substance/in the absence of chemical substance (yeast gene YDL078C) | The level of expressed mRNA in the presence of chemical substance/The level of expressed mRNA in the absence of chemical substance (yeast gene YDR481C) | The level of expressed mRNA in the presence of chemical substance/ (yeast gene YFL006W, ratio to control without chemical substance, 2 h culture)
2.1: The level of expressed mRNA in the presence of chemical substance/The level of expressed mRNA in the absence of chemical substance (yeast gene YBL043W)
0.7: The level of expressed mRNA in the presence of chemical substance/in the absence of chemical substance (yeast gene YBR036C) | The level of expressed mRNA in the presence of chemical substance/The level of expressed mRNA in the absence of chemical substance (yeast gene YBR214W) | The level of expressed mRNA in the presence of chemical substance/ (yeast gene YDL222C, ratio to control without chemical) | The level of expressed mRNA in the presence of chemical substance/The level of expressed mRNA in the absence of chemical substance (yeast gene YDR084C) | The level of expressed mRNA in the presence of chemical substance/in the absence of chemical substance (yeast gene YDR387C) | The level of expressed mRNA in the presence of chemical substance/The level of expressed mRNA in the absence of chemical substance (yeast gene YEL042W) | The level of expressed mRNA in the presence of chemical substance/The level of expressed mRNA in the absence of chemical substance (yeast gene YER039C)
2.0: The level of expressed mRNA in the presence of chemical substance/The level of expressed mRNA in the absence of chemical substance (yeast gene YDR085C)
1.1: The level of expressed mRNA in the presence of chemical substance/ (yeast gene YDL204W, ratio to control without chemical) | The level of expressed mRNA in the presence of chemical substance/in the absence of chemical substance (yeast gene YDL215C) | The level of expressed mRNA in the presence of chemical substance/ (yeast gene YDR330W, ratio to control without chemical substance, 2 h culture) | The level of expressed mRNA in the presence of chemical substance/ (yeast gene YER004W, ratio to control without chemical substance, 2 h culture) | The level of expressed mRNA in the presence of chemical substance/ (yeast gene YER175C, ratio to control without chemical substance, 2 h culture)
1.5: The level of expressed mRNA in the presence of chemical substance/in the absence of chemical substance (yeast gene YDR297W) | The level of expressed mRNA in the presence of chemical substance/The level of expressed mRNA in the absence of chemical substance (yeast gene YDR510W)
0.8: The level of expressed mRNA in the presence of chemical substance/ (yeast gene YAL053W, ratio to control without chemical) | The level of expressed mRNA in the presence of chemical substance/ (yeast gene YDL072C, ratio to control without chemical) | The level of expressed mRNA in the presence of chemical substance/The level of expressed mRNA in the absence of chemical substance (yeast gene YDR388W) | The level of expressed mRNA in the presence of chemical substance/The level of expressed mRNA in the absence of chemical substance (yeast gene YER107C)
0.5: The level of expressed mRNA in the presence of chemical substance/in the absence of chemical substance (yeast gene YBR298C) | The level of expressed mRNA in the presence of chemical substance/The level of expressed mRNA in the absence of chemical substance (yeast gene YCR088W) | The level of expressed mRNA in the presence of chemical substance/The level of expressed mRNA in the absence of chemical substance (yeast gene YDR432W)
1.3: The level of expressed mRNA in the presence of chemical substance/The level of expressed mRNA in the absence of chemical substance (yeast gene YAR010C) | The level of expressed mRNA in the presence of chemical substance/The level of expressed mRNA in the absence of chemical substance (yeast gene YDR104C) | The level of expressed mRNA in the presence of chemical substance/The level of expressed mRNA in the absence of chemical substance (yeast gene YDR115W)
0.6: The level of expressed mRNA in the presence of chemical substance/The level of expressed mRNA in the absence of chemical substance (yeast gene YCL027W) | The level of expressed mRNA in the presence of chemical substance/ (yeast gene YDR545W, ratio to control without chemical substance, 2 h culture)

Reference: patent US20050112573A1, “Method of detecting toxic substance” (priority 2001, published 2005)
